Test results: paper PMC12084297, “Cytoplasmic connexin43-microtubule interactions promote glioblastoma stem-like cell maintenance and tumorigenicity” (Cell Death & Disease, 2025)

Experiments:
VTC-001 GSCs = experiment: MTS viability, VTC-001 GSCs; type: cell-based, human; conditions: VTC-001 adherent GSCs, TMZ 50 μM, 4 days
Protocol: (§1) Cells were plated in 96-well plates (2000–5000 cells per well) and treated the following day with TMZ (10, 50, or 100 μM), antennapedia, JM2-scrambled, or JM2 (10, 50, or 100 μM). After 4 days, cell viability was monitored following addition of MTS reagent (Promega) according to manufacturer’s instructions. The absorbance at 490 nm was measured using a SpectraMax i3 or iD3 microplate reader (Molecular Devices). For the caspase 3/7 activity assay, cells were plated in 96-well plates (2000 cells per well) and treated with TMZ or peptides as described above. The activity of caspase 3/7 was measured after 48 h using the Caspase-Glo® 3/7 assay (Promega) following the manufacturer’s instructions. Fold change of caspase 3/7 activity was defined as the ratio of caspase 3/7 luminescence in treated cells compared to controls.

VTC-037 GSCs = experiment: MTS viability, VTC-037 GSCs; type: cell-based, human; conditions: VTC-037 adherent GSCs, TMZ 50 μM, 4 days
Protocol: as §1

VTC-034 GSCs = experiment: Caspase 3/7 activity, VTC-034 GSCs; type: cell-based, human; conditions: VTC-034 adherent GSCs, 10, 50 or 100 μM, 48 h, Caspase-Glo 3/7
Protocol: as §1

[1] = system: newly diagnosed GBM patients; conditions: surgical resection, radiotherapy, and chemotherapy with temozolomide, ref [1]-[3]; cited from earlier work
Source text: Glioblastoma (GBM) is a highly malignant and lethal cancer of the central nervous system. The current multimodal therapy for newly diagnosed GBM patients includes surgical resection, radiotherapy, and chemotherapy with temozolomide (TMZ), conferring a median survival of only 14.6 months, with recent results from phase 3 clinical trials showing an extension up to 20 months, although using more stringent inclusion criteria that limit generalizability.

Cn1nnc2c(C(N)=O)ncn2c1=O [TMZ, temozolomide, reference compound]
GSC viability with TMZ alone (MTS) (VTC-001 GSCs): resistant to TMZ treatment | GSC viability with TMZ alone (MTS) (VTC-037 GSCs): resistant to TMZ treatment | Apoptosis induction (caspase 3/7 activity) (VTC-034 GSCs): inefficient in inducing apoptosis | Median survival [1]: 14.6 months
